ChEMBL document CHEMBL3232707, “Total synthesis of the lipid mediator PD1n-3 DPA: configurational assignments and anti-inflammatory and pro-resolving actions” (J Nat Prod, 2014)
Calls of active or inactive are those of the source.

Columns and labels:
Mus musculus [1] = assay: Antiinflammatory activity in mouse assessed as reduction of zymosan-induced neutrophil recruitment during peritonitis at 10 ng, iv administered 5 mins before zymosan challenge measured after 4 hrs by light microscopy/flow cytometry; assay type: functional, organism-based
Macrophage [2] = assay: Pro-resolving activity in human macrophages assessed as increase of phagocytosis of fluorescence-labeled yeast cell wall particles at 100 nM to 10 pM preincubated for 15 mins measured after 60 mins; assay type: functional, cell-based
Macrophage [3] = assay: Pro-resolving activity in human macrophages assessed as increase of phagocytosis of bisbenzimide-labeled apoptotic neutrophils at 100 nM to 10 pM preincubated for 15 mins measured after 60 mins; assay type: functional, cell-based
Mus musculus [4] = assay: Antiinflammatory activity in mouse assessed as reduction of zymosan-induced number of neutrophils recovered from peritoneal exudates at 10 ng, iv administered 5 mins before zymosan challenge measured after 4 hrs by light microscopy/flow cytometry; assay type: functional, organism-based

Measured: Activity

CC/C=C\C[C@H](O)\C=C/C=C/C=C/[C@H](O)C/C=C\CCCCCC(=O)O
active: all assays above

CC/C=C\C[C@H](O)\C=C/C=C/C=C/[C@H](O)C/C=C\C/C=C\CCC(=O)O
active: all assays above
